Results as given in patent publication US20260049104A1, “PEPTIDES WITH ANTIMICROBIAL PROPERTIES” (priority 2022, published 2026).
≈ marks a conversion by molar mass, not a printed value. Where two headings read alike, the source gives them in different places.

What was measured:
[1] = tested on: Klebsiella pneumoniae; details: for MIC value: Table 15, unit inferred
Experimental: (§1) MIC screening of the peptides against a panel of ATCC and clinical strains was performed using broth microdilution method.^1 Briefly, peptides stock solutions in DMSO (0.1/G TFA) were diluted into Mueller Hinton Broth (MHB), followed by two-fold serial dilution in a 96-well plate. Bacteria culture in mid-log phase was diluted into MHB to yield […] colony-forming units (CFU)/mL. Equal volume of the starting inoculum was added to the peptide samples, then incubated for 18-20 h (37° C., 120 rpm). OD600 of the samples was then measured using Tecan Infinite M200 (TECAN, Männedorf, Switzerland). MIC is defined as the lowest peptide concentration to achieve more than 90% reduction in OD600 relative to the drug-free control. The experiments were repeated three times. Colistin-resistant clinical isolates are a kind gift from Dr. Jeanette Koh (National University Hospital, Singapore). Multidrug-resistant clinical isolates are a kind gift from Dr. Lakshminarayanan Rajamani (Singapore Eye Research Institute, Singapore).
(§2) Kanamycin and ampicillin were used as antibacterial control agents. […] Then, sequential 2-fold serial dilutions of the mix were diluted in 50 μL MH broth and 50 μL cell cultures were added to wells. […] All assays were carried out in triplicate.

[2] = tested on: Acinetobacter baumannii; details: for MIC value: Table 15, unit inferred
Experimental: as §1, §2

[3] = tested on: Escherichia coli; details: for MIC value: Table 15, unit inferred
Experimental: as §1, §2

[4] = tested on: Enterobacter cloacae; details: Table 15, unit inferred
Experimental: as §1, §2

[5] = tested on: Pseudomonas aeruginosa; type: cell-based; details: for MIC value: Table 15, unit inferred
Excerpt: The experiments were repeated three times.

[6] = tested on: E. coli M6; details: E. coli M6, compared with xenorceptide A2 (2)
Experimental: Resistance development of E. coli M6 against xenorceptide A2 was assessed by serial passaging of the bacteria in broth containing subinhibitory concentrations of the peptide. In brief, bacteria culture at mid-log phase was diluted to 10^5-10^6 CFU/mL in MHB containing 0.25×, 0.5×, 1×, 2×, and 4×MIC of the peptide. […] A new set of peptide concentration range was added to the cultures based on the latest MIC. This process was repeated over 14 days for three independent starting cultures.

[7] = tested on: Gram-positive and Gram-negative bacteria; details: panel of E. coli, K. pneumoniae, E. cloacae, A. baumannii, E. faecalis and S. aureus; preliminary screening
Experimental: as §1, §2

[8] = tested on: Staphylococcus aureus; details: Staphylococcus aureus ATCC 29737
Experimental: as §1, §2

[9] = Acinetobacter baumanii ACβA1001
[10] = Acinetobacter baumanii ACβA1002
[11] = Acinetobacter baumanii ACβA1003
[12] = Acinetobacter baumanii ACβA1004
[13] = ATCC 25922, printed under Klebsiella pneumoniae
[14] = Pseudomonas aeruginosa DR4877/07
[15] = Pseudomonas aeruginosa DR5790/07

Compound | MIC value [2, 9] [µg/mL] | MIC value [2, 10] [µg/mL] | MIC value [2, 11] [µg/mL] | MIC value [2, 12] [µg/mL] | MIC value ([3]; Escherichia coli M2) [µg/mL] | MIC value ([3]; Escherichia coli M6) [µg/mL] | MIC value ([3]; Escherichia coli M10) [µg/mL] | MIC value ([3]; Escherichia coli M11) [µg/mL] | MIC value ([4]; Enterobacter cloacae CRE1010) [µg/mL] | MIC value ([4]; Enterobacter cloacae CRE1014) [µg/mL] | MIC value ([4]; Enterobacter cloacae CRE1015) [µg/mL] | MIC value ([4]; Enterobacter cloacae CRE1016) [µg/mL] | MIC value ([4]; Enterobacter cloacae CRE1017) [µg/mL] | MIC value [1, 13] [µg/mL] | MIC value ([1]; CRE1006, Klebsiella pneumoniae) [µg/mL] | MIC value ([1]; Klebsiella pneumoniae CRE 1007) [µg/mL] | MIC value ([1]; Klebsiella pneumoniae CRE1008) [µg/mL] | MIC value ([1]; Klebsiella pneumoniae CRE1011) [µg/mL] | MIC value ([1]; Klebsiella pneumoniae CRE1012) [µg/mL] | MIC value ([5]; Pseudomonas aeruginosa DM4150R) [µg/mL] | further results
CC[C@H](C)[C@@H]1NC(=O)[C@@H](NC(=O)[C@H]2NC(=O)[C@H](CC(C)C)NC(=O)[C@@H](NC(=O)[C@H](CCCNC(=N)N)NC(=O)CNC(=O)[C@@H](N)CC(=O)O)Cc3c[nH]c4cc(ccc34)C2CC(N)=O)Cc2c[nH]c3cc(ccc23)C(CCCN)[C@@H](C(=O)N[C@@H](CC(N)=O)C(=O)N[C@@H](Cc2c[nH]cn2)C(=O)O)NC1=O (some centres unmarked) [Compound 27] |  |  |  |  |  |  |  |  |  |  |  |  |  |  |  |  |  |  |  |  | MIC ([1]; Klebsiella pneumoniae ATC 700603, Table 14, preliminary screening): 8 µg/mL (≈ 5.52 µM)
CC(C)[C@@H]1NC(=O)[C@@H](N)Cc2c[nH]c3cc(ccc23)C(C(N)=O)[C@@H](C(=O)N[C@@H](C)C(=O)N[C@H]2Cc3cccc(c3)C(CCNC(=N)N)[C@@H](C(=O)N[C@H]3Cc4c[nH]c5cc(ccc45)C(CCCN)[C@@H](C(=O)N[C@@H](CCCNC(=N)N)C(=O)N[C@@H](Cc4ccccc4)C(=O)O)NC(=O)[C@H](CO)NC3=O)NC(=O)[C@H](C)NC2=O)NC1=O (some centres unmarked) [xenorceptide A12-2] | 16 (≈ 10.2 µM) | 8 (≈ 5.12 µM) | 16 (≈ 10.2 µM) | 16 (≈ 10.2 µM) | 4 (≈ 2.56 µM) | 2 (≈ 1.28 µM) | 2 (≈ 1.28 µM) | 4 (≈ 2.56 µM) | 2 (≈ 1.28 µM) | 32 (≈ 20.5 µM) | 16 (≈ 10.2 µM) | 16 (≈ 10.2 µM) | 32 (≈ 20.5 µM) | 1 (≈ 0.64 µM) | 2 (≈ 1.28 µM) | 4 (≈ 2.56 µM) | 4 (≈ 2.56 µM) | 8 (≈ 5.12 µM) | 4 (≈ 2.56 µM) | 32 (≈ 20.5 µM) | MIC value ([5]; Pseudomonas aeruginosa DM23376): 32 µg/mL (≈ 20.5 µM); MIC value [5, 14]: 32 µg/mL (≈ 20.5 µM); MIC value [5, 15]: 32 µg/mL (≈ 20.5 µM)
CC(C)[C@@H]1NC(=O)[C@@H](N)Cc2c[nH]c3cc(ccc23)C(C(N)=O)[C@@H](C(=O)N[C@@H](C)C(=O)N[C@H]2Cc3cccc(c3)C(CCNC(=N)N)[C@@H](C(=O)N[C@H]3Cc4c[nH]c5cc(ccc45)C(CCCN)[C@@H](C(=O)N[C@@H](CCCNC(=N)N)C(=O)N[C@@H](Cc4c[nH]c5ccccc45)C(=O)O)NC(=O)[C@H](CO)NC3=O)NC(=O)[C@H](C)NC2=O)NC1=O (some centres unmarked) [xenorceptide A12-1] | 8 (≈ 5 µM) | 8 (≈ 5 µM) | 8 (≈ 5 µM) | 8 (≈ 5 µM) | 8 (≈ 5 µM) | 2 (≈ 1.25 µM) | 2 (≈ 1.25 µM) | 2 (≈ 1.25 µM) | 2 (≈ 1.25 µM) | 8 (≈ 5 µM) | 16 (≈ 9.99 µM) | 8 (≈ 5 µM) | 16 (≈ 9.99 µM) | 2 (≈ 1.25 µM) | 2 (≈ 1.25 µM) | 2 (≈ 1.25 µM) | 4 (≈ 2.5 µM) | 4 (≈ 2.5 µM) | 4 (≈ 2.5 µM) | 32 (≈ 20 µM) | MIC value ([5]; Pseudomonas aeruginosa DM23376): > 32 µg/mL; MIC value [5, 14]: 32 µg/mL (≈ 20 µM); MIC value [5, 15]: 32 µg/mL (≈ 20 µM)
colistin [reference compound] |  |  |  |  |  |  |  |  |  |  |  |  |  |  |  |  |  |  |  |  | development of reduced susceptibility in serial passage [6]: readily became less susceptible
CC(C)[C@@H]1NC(=O)[C@@H](N)Cc2c[nH]c3cc(ccc23)C(C(N)=O)[C@@H](C(=O)N[C@@H](C)C(=O)N[C@H]2Cc3cccc(c3)C(CCNC(=N)N)[C@@H](C(=O)N[C@H]3Cc4c[nH]c5cc(ccc45)C(CCNC(=N)N)[C@@H](C(=O)N[C@@H](CCCNC(=N)N)C(=O)N[C@@H](Cc4c[nH]c5ccccc45)C(=O)O)NC(=O)[C@H](CO)NC3=O)NC(=O)[C@H](C)NC2=O)NC1=O (some centres unmarked) [xenorceptide A11] | 16 (≈ 9.82 µM) | 16 (≈ 9.82 µM) | 16 (≈ 9.82 µM) | 16 (≈ 9.82 µM) | 8 (≈ 4.91 µM) | 4 (≈ 2.46 µM) | 2 (≈ 1.23 µM) | 4 (≈ 2.46 µM) | 4 (≈ 2.46 µM) | 8 (≈ 4.91 µM) | 16 (≈ 9.82 µM) | 8 (≈ 4.91 µM) | 16 (≈ 9.82 µM) | 1 (≈ 0.614 µM) | 4 (≈ 2.46 µM) | 4 (≈ 2.46 µM) | 4 (≈ 2.46 µM) | 4 (≈ 2.46 µM) | 4 (≈ 2.46 µM) | 16 (≈ 9.82 µM) | MIC value ([5]; Pseudomonas aeruginosa DM23376): 16 µg/mL (≈ 9.82 µM); MIC value [5, 14]: 32 µg/mL (≈ 19.6 µM); MIC value [5, 15]: 32 µg/mL (≈ 19.6 µM)
CC[C@H](C)[C@H](NC(=O)CNC(=O)[C@H](CC(=O)O)NC(=O)[C@H](CC(=O)O)NC(=O)[C@H](CC(=O)O)NC(=O)[C@H](CO)NC(=O)[C@@H](N)CO)C(=O)N[C@H]1Cc2ccc(cc2)C(CCCN)[C@@H](C(=O)N[C@H](C(=O)N[C@H](C(=O)N[C@H]2Cc3c[nH]c4cc(ccc34)C(CCNC(=N)N)[C@@H](C(=O)N[C@@H](CCCNC(=N)N)C(=O)O)NC(=O)[C@H](CC(=O)O)NC2=O)[C@@H](C)O)[C@@H](C)O)NC(=O)[C@H](Cc2ccccc2)NC1=O (some centres unmarked) [Compound 22] |  |  |  |  |  |  |  |  |  |  |  |  |  |  |  |  |  |  |  |  | antibacterial activity [7]: no activity
CC(C)[C@@H]1NC(=O)[C@@H](N)Cc2c[nH]c3cc(ccc23)C(C(N)=O)[C@@H](C(=O)N[C@@H](C)C(=O)N[C@H]2Cc3ccc(cc3)C(C(N)=O)[C@@H](C(=O)N[C@H]3Cc4c[nH]c5cc(ccc45)C(CCCN)[C@@H](C(=O)N[C@@H](CCCNC(=N)N)C(=O)N[C@@H](Cc4ccccc4)C(=O)O)NC(=O)[C@H]([C@@H](C)O)NC3=O)NC(=O)[C@H](C)NC2=O)NC1=O (some centres unmarked) [xenorceptide A8] |  |  |  |  |  |  |  |  |  |  |  |  |  |  |  |  |  |  |  |  | MIC ([2]; Acinetobacter baumannii ATCC 19606): >64 µg/mL; MIC [8]: >64 µg/mL; MIC ([3]; Escherichia coli ATCC 25922): 2 µg/mL (≈ 1.3 µM); MIC ([1]; Klebsiella pneumoniae ATCC 700603): 4 µg/mL (≈ 2.61 µM); MIC ([5]; Pseudomonas aeruginosa ATCC 9027): 64 µg/mL (≈ 41.7 µM)
